Data published in paper PMC6385482 (2018).

System: hpDNA (hairpin DNA, 28 bp as printed) (DNA, hairpin) CGCGAATTCGCGTTTTCGCGAATTCGCG
Assay: fluorescence titration, two-site fit with offset
Conditions: PBS (ion concentrations not given); PBS pH 7.4, room temperature, 1 h; 10 nM compound; site 1 of 2

Kd1 | SMILES
65 ± 7 nM | CN1CCN(c2ccc3nc(-c4ccc5nc(-c6ccc(OCCCCNC(=O)c7ccc8c(c7)C7(OC8=O)c8ccc(N(C)C)cc8C(C)(C)c8cc(N(C)C)ccc87)cc6)[nH]c5c4)[nH]c3c2)CC1
14 ± 1 nM | CN1CCN(c2ccc3nc(-c4ccc5nc(-c6ccc(OCCCCNC(=O)c7ccc8c(c7)C7(OC8=O)c8ccc(N(C)C)cc8Oc8cc(N(C)C)ccc87)cc6)[nH]c5c4)[nH]c3c2)CC1
27 ± 3 nM | CNc1ccc2c(c1)C(C)(C)c1cc(NC)ccc1C21OC(=O)c2ccc(C(=O)NCCCCOc3ccc(-c4nc5ccc(-c6nc7ccc(N8CCN(C)CC8)cc7[nH]6)cc5[nH]4)cc3)cc21

System: hpDNA (hairpin DNA, 28 bp as printed) (DNA, hairpin) CGCGAATTCGCGTTTTCGCGAATTCGCG
Assay: fluorescence titration, single-site fit
Conditions: PBS (ion concentrations not given); PBS pH 7.4, room temperature, 1 h; 4 nM compound

Kd1 | SMILES
2.6 ± 0.4 nM | CCOc1ccc(-c2nc3ccc(-c4nc5ccc(N6CCN(C)CC6)cc5[nH]4)cc3[nH]2)cc1

Same assay, conditions: PBS (ion concentrations not given); PBS pH 7.4, room temperature, 1 h; 10 nM compound

Kd1 | SMILES
347 ± 22 nM | CN1CCN(c2ccc3nc(-c4ccc5nc(-c6ccc(OCCCCNC(=O)c7ccc8c(c7)C(=O)OC87c8ccc(N(C)C)cc8C(C)(C)c8cc(N(C)C)ccc87)cc6)[nH]c5c4)[nH]c3c2)CC1
155 ± 14 nM | CNc1ccc2c(c1)C(C)(C)c1cc(NC)ccc1C21OC(=O)c2cc(C(=O)NCCCCOc3ccc(-c4nc5ccc(-c6nc7ccc(N8CCN(C)CC8)cc7[nH]6)cc5[nH]4)cc3)ccc21

More lines, now with the values behind:

SMILES | Kd1
CN1CCN(c2ccc3nc(-c4ccc5nc(-c6ccc(OCCCCNC(=O)c7ccc8c(c7)C(=O)OC87c8ccc(N(C)C)c[c]8[Ge]([CH3])([CH3])[c]8cc(N(C)C)ccc87)cc6)[nH]c5c4)[nH]c3c2)CC1 | 4374 ± 192 nM
CN1CCN(c2ccc3nc(-c4ccc5nc(-c6ccc(OCCCCNC(=O)c7ccc8c(c7)C(=O)OC87c8ccc(N(C)C)cc8Oc8cc(N(C)C)ccc87)cc6)[nH]c5c4)[nH]c3c2)CC1 | 365 ± 12 nM
CN1CCN(c2ccc3nc(-c4ccc5nc(-c6ccc(OCCCCNC(=O)c7ccc8c(c7)C(=O)OC87c8ccc(N(C)C)cc8[Si](C)(C)c8cc(N(C)C)ccc87)cc6)[nH]c5c4)[nH]c3c2)CC1 | 4799 ± 201 nM
CN1CCN(c2ccc3nc(-c4ccc5nc(-c6ccc(OCCCCNC(=O)c7ccc8c(c7)C7(OC8=O)c8ccc(N(C)C)c[c]8[Ge]([CH3])([CH3])[c]8cc(N(C)C)ccc87)cc6)[nH]c5c4)[nH]c3c2)CC1 | 572 ± 26 nM
CN1CCN(c2ccc3nc(-c4ccc5nc(-c6ccc(OCCCCNC(=O)c7ccc8c(c7)C7(OC8=O)c8ccc(N(C)C)cc8[Si](C)(C)c8cc(N(C)C)ccc87)cc6)[nH]c5c4)[nH]c3c2)CC1 | 669 ± 26 nM
